Values quoted from earlier work, collected in EP3569066A1, “ECOLOGICAL FORMULA HAVING MULTIPLE ANTIMICROBIAL ACTION (BACTERICIDAL, FUNGICIDAL AND ANTI-VIRAL) BASED ON COMMERCIAL MOLECULES” (Arias Dipre, Juan José, priority 2017, dated 2018).
Where two headings read alike, the source gives them in different places.

Settings: 0.1N solution

O=C(O)CC(O)(CC(=O)O)C(=O)O [Ingredient 1, 2-HYDROXY-1, 2, 3 TRI[…]]
pH: 2.2
pH (listed as E): 2.2 (0.1 N)
